In patent publication US5641760A, “Method of treating candida infection” (Pence, Inc., priority 1994, dated 1997):

Key:
[1] = system: Candida albicans strain #40 fimbriae (enriched fimbriae EF, 66 kDa fimbrial subunit/adhesin protein); test: Thin-layer chromatography plate binding assay of fimbriae to glycosphingolipids; details: 10 μg GSL per spot; 100 μg EF/ml; detected with mAb Fm16
Method: Bound fimbriae on the TLC plates were visualized with a Protein G affinity-purified anti-C. albicans fimbriae monoclonal antibody, Fm16, obtained from ascites tumor in Balb/c mice as described below and a goat anti-mouse IgG alkaline phosphatase. […] (Lane 2).
The thin-layer chromatography (TLC) plate binding assay was performed as described by Baker et al. (1) with minor modifications. Aluminum-backed silica gel Si60 high performance TLC plates (Merck Kieselgel Si60, no fluorescence indicator, E. Merck, Darmstadt, Germany) were cut to produce 8×2.5 cm plates which were chromatographed with 100% methanol to the top of the plate to remove impurities and the plates were air dried. Glycosphingolipids (GSLs) (10 μg of each GSL) were loaded 1.0 cm above the base of the plate. The following glycosphingolipids purchased from Sigma Co. (St. Louis, Mo.) were used: mono-sialoganglioside (M-GM1), asialoganglioside GM1 (asialo-GM1), asialoganglioside GM2 (asialo-GM2), lactosylcerebroside (LCS), ceramide trihexoside (CTH). GSLs were separated on the TLC plates in chloroform-methanol-water (65:35:8, v/v/v) and air dried. One set of plates was sprayed with 10% sulphuric acid in ethanol and heated at 100°-150° C. for 5-10 min to char the GSLs for visual detection, and the other set was used for the fimbrial binding assay. The four corners of the plate were bent to 90° and the remainder of the assay was done with the TLC plates inverted in all solutions and at room temperature in an incubator shaker (model G25 Gyroshaker, New Brunswick Scientific, New Jersey, U.S.A.) at 20 rpm agitation. The TLC plate was blocked with 50 mM tris-hydroxy-methyl aminomethane pH 7.5 containing 150 mM NaCl (TBS), 0.25% (w/v) gelatin, 3% (w/v) BSA, 5 mM EDTA and 0.05% (v/v) Nonidet P40 in a glass petri dish for 2 hr at room temperature. The blocking solution was aspirated and 10 ml of EF (100 μg EF/ml in 100 mM TBS, pH 7.5) was then added. The fimbriae were allowed to bind to GSLs for 2 hours at room temperature. The plates were gently washed (2×5 min) with 10 ml of 100 mM TBS containing 0.1% (v/v) Tween 20 (TBST). The murine anti-EF monoclonal antibody, Fm16, was diluted 1:200 with TBST and 10 ml was added to the TLC plates. The solution was incubated for 1 hour at room temperature. Unbound antibodies were removed by washing the plates with 10 ml of TBST (2×5 min). The plate was then incubated with 10 ml of goat anti-mouse immunoglobulin G alkaline phosphatase conjugate (Jackson Laboratories) diluted 1:5,000 with TBST for 1 hour at room temperature. The plates were washed (2×5 min.) with 10 ml of TBST. The alkaline phosphatase activity was localized with Nitro Blue Tetrazolium chloride (NBT) and 5-bromo-4-chloro-3-indolyl phosphate (BCIP) dissolved in 100 mM Tris buffer, pH 9.5 containing 100 mM NaCl and 5 mM MgCl2. Color development was quenched by rinsing the TLC plate with deionized water and submerging the plate into a 150 mM EDTA solution pH 8.0 for 3-5 min. The plates were air dried, stored in plastic in the dark until they were photographed.

[2] = system: Candida albicans strain #40 fimbriae (enriched fimbriae EF, 66 kDa fimbrial subunit/adhesin protein); test: Inhibition of fimbriae binding to immobilized βGalNAc(1-4)βGal-BSA conjugate; details: plates coated with 10 μg/ml conjugate; read-out: Half-maximal inhibition of fimbriae binding to βGalNAc(1-4)βGal-BSA conjugate
Method: Further experiments to determine the specificity of fimbrial binding to GSLs were carried out using a plate binding assay, as described above, but immobilizing on the plates a βGalNAc(1-4)βGal-BSA conjugate, synthesized from βGalNAc(1-4)βGal-O(CH2)8 COOCH3 (Sabesan and Lemieux), as described in Part B, above. The coupling ratio of disaccharide: BSA was 12:1. The protocol utilized for this assay was similar to that employed for the assessment of C. albicans fimbriae binding to GSLs except that the plates were coated with 100 μl/well of a 10 μg/ml solution of synthetic βGalNAc(1-4)βGal-BSA conjugate in 0.01M carbonate buffer, pH 9.5.
Using this assay, it was first determined that fimbriae bind to the βGalNAc(1-4)βGal-BSA conjugate in a saturable, concentration-dependent manner. FIGS. 12A and 12B show the results of experiments in which compounds were tested for ability to inhibit binding of fimbriae to the βGalNAc(1-4)βGal-BSA conjugate. The protocol used in this assay was similar to the one used in the GSL inhibition assay described above, except that the plates were coated with 100 μl/well of a 10 μg/ml solution of synthetic βGalNAc(1-4)βGal-BSA conjugate in 0.01M carbonate buffer, pH 9.5. As depicted in FIG. 12A, βGalNAc(1-4)βGal-methylester ("GalNAcGal") was able to inhibit binding to the GalNAcGal-BSA conjugate in a concentration dependent manner. […]

[3] = system: Candida albicans fimbriae (binding to human BECs); test: Inhibition of fimbriae binding to human buccal epithelial cells (BECs); type: cell-based; details: fimbriae 50 μg preincubated with competitor 1 h at 37° C.; 2.0×10^5 BECs; competitor concentration not stated
Method: The percent inhibition is the inhibition of binding in the presence of the competing antigens with respect to binding observed in the absence of any competitors.
The fimbrial adherence assay was performed using a Manifold filtration apparatus equipped with individual vacuum stopcocks (Model FH 225V, Hoefer Scientific Instruments). Polycarbonate filters, 12 μm pore size (Nucleopore Costar Corp.), were pre-incubated overnight at 4° C. with 50 ml of PBS pH 7.2, containing 0.45% (v/v) Tween 20. The pretreated filters were placed into each chamber and washed with 2.5 ml of PBS. 1 ml containing 2.0×10^5 BECs in PBS was added to each chamber. Enriched fimbriae (100 μl/chamber, ranging from 0 to 80 μg fimbriae protein/ml) in PBS containing 0.05% (v/v) Tween-20 was added to each chamber and incubated with the BECs for 1.5 hours at room temperature. Unbound fimbriae were removed with washes of 2.5 ml of PBS. Mouse anti-C. albicans fimbriae monoclonal antibody (ascites fluid diluted 1:3000 with PBS) was added to the BECs (1.2 ml/chamber) and incubated for 1.5 hour at room temperature. BECs were washed five times with 2.5 ml of PBS. Goat anti-mouse IgG(H+L)-peroxidase conjugates (Jackson Laboratories) diluted 1:5000 with PBS was added (1.0 ml/chamber) and incubated for another hour at room temperature. The cells were then washed seven times with 2.5 ml/chamber of PBS. The polycarbonate filters containing BECs were removed from the filtration manifold and placed into glass scintillation vials. The horseradish peroxidase substrate solution (ABTS) was added to each vial (1 ml/vial) and incubated for 30 min at room temperature on a shaker at 100 rpm. The reaction was stopped by the addition of 4 mM sodium azide (200 μl/vial). The substrate solution was pipetted into Eppendorf tubes and centrifuged at 5,000 g for 3 minutes. Aliquots of the supernatants were pipetted into microtiter wells (200 μl/well) and the resulting absorbance at 405 nm was recorded with a Titertek Multiskan Plus microplate recorder. […]

[4] = system: Candida albicans (binding to human buccal epithelial cells); test: Inhibition of C. albicans whole cell binding to human BECs; type: cell-based; details: fungal cells exposed to increasing concentrations, then mixed with BECs
Method: Further experiments were carried out to determine the ability of βGalNAc(1-4)βGal-methylester ("GalNAcGal") to inhibit binding between whole BECs and Candida albicans.
C. albicans cells were radiolabelled as previously described by McEachran and Irvin (35, 48), incorporated herein by reference. A loopful of culture from Sabouraud-dextrose agar (GIBCO) was used as a source of inoculum for 10 ml of M9 medium supplemented with 0.4% (w/v) glucose. Cultures were incubated at 25° C. for 12 hours with 150 rpm agitation in G25 Gyrotory shaker (New Brunswick Scientific Co.). Cultures were supplemented with 5 μCi/ml of [^35 S]-L-methionine (New England Nuclear, Boston, Mass.) after 10 hours of incubation. […] The amount of [^35 S]-L-methionine incorporated by the C. albicans cells was determined by filtering 1.0 ml of a 1:100 dilution of washed C. albicans culture through a 0.2 μm polycarbonate filter (Nucleopore Corp., Pleasanton, Calif.) in triplicate, washing with 15 ml of PBS, and placing the filter in scintillation vials with 5.0 ml of Aquasol (New England Nuclear, Massachusettes). The counts per minute were determined with a Beckman LS-150 liquid-scintillation counter. […]
In a similar manner, experiments were carried out testing the ability of βGalNac(1-4)βGal to inhibit binding of C. albicans to BECs. […] Total cell counts were determined using a hemocytometer. […]

Molecule	Binding of C. albicans fimbriae to glycosphingolipid on TLC plate [1]	IC50 [2] [µM]	Inhibition of C. albicans fimbriae binding to BECs [3] [%]	Inhibition of binding between whole BECs and Candida albicans [4]
mono-sialoganglioside [GM1]	failed to bind	–	–	–
COC(=O)CCCCCCCCO[C@@H]1O[C@H](CO)[C@H](O[C@@H]2O[C@H](CO)[C@H](O)[C@H](O)[C@H]2NC(C)=O)[C@H](O)[C@H]1O [βGalNAc(1-4)βGal-methylester]	–	8.2	70	inhibited the fungal cell-BEC interaction in a concentration dependent manner
gangliotriosylceramide: βGalNAc(1-4)βGal(1-4)βGlc(1-1)Cer [asialo-GM2]	bind specifically	–	–	–
lactosyl cerebroside [LCS]	failed to bind	–	–	–
